Data on 25 compounds can be found in patent publication US10053417B2, “Neprilysin inhibitors” (THERAVANCE BIOPHARMA R&D IP, LLC, priority 2013, dated 2018).

T1 sequence (P08473 52-750 limits assumed): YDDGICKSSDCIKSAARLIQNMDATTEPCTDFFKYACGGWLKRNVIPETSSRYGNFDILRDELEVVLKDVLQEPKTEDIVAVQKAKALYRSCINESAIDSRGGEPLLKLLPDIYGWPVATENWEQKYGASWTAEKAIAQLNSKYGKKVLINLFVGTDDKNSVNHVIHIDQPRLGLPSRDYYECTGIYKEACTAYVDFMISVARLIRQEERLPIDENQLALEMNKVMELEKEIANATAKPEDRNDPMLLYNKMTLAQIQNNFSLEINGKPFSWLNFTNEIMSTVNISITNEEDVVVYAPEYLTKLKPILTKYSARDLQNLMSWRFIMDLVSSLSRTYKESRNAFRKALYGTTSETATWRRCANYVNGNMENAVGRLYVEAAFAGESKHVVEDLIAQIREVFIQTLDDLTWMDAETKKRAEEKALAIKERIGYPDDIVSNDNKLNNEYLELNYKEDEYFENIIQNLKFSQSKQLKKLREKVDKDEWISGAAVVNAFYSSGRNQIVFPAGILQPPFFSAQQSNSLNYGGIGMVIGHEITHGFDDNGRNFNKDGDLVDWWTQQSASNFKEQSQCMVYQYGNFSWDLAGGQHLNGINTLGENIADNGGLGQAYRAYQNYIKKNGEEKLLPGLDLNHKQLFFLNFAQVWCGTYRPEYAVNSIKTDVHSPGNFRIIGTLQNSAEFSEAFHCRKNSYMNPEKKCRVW

The assay has as its target T1, human NEP (Homo sapiens, UniProt P08473).
T1 construct: purchased R&D Systems, Minneapolis, Minn; 1182-ZN
As to the kind of experiment: In vitro enzyme inhibition assay, inhibitor potency at human NEP (Assay 1). It counts as biochemical. The following applies: recombinant human NEP; fluorogenic peptide substrate 10 μM; 37° C.; values given as ranges. On the procedure: The inhibitory activities of compounds at human and rat neprilysin (EC 3.4.24.11; NEP) and human angiotensin converting enzyme (ACE) were determined using in vitro assays as described below.
Recombinant human NEP and recombinant human ACE were obtained commercially (R&D Systems, Minneapolis, Minn., catalog numbers 1182-ZN and 929-ZN, respectively). The fluorogenic peptide substrate Mca-D-Arg-Arg-Leu-Dap-(Dnp)-OH (Medeiros et al. (1997) Braz. J. Med. Biol. Res. 30:1157-62; Anaspec, San Jose, Calif.) and Abz-Phe-Arg-Lys(Dnp)-Pro-OH (Araujo et al. (2000) Biochemistry 39:8519-8525; Bachem, Torrance, Calif.) were used in the NEP and ACE assays respectively.
The assays were performed in 384-well white opaque plates at 37° C. using the fluorogenic peptide substrates at a concentration of 10 μM in Assay Buffer (NEP: 50 mM HEPES, pH 7.5, 100 mM NaCl, 0.01% polyethylene glycol sorbitan monolaurate (Tween-20), 10 μM ZnSO4; ACE: 50 mM HEPES, pH 7.5, 100 mM NaCl, 0.01% Tween-20, 1 μM ZnSO4).
Test compounds were assayed over the range of concentrations from […] to 20 μM. Test compounds were added to the enzymes and incubated for 30 minute at 37° C. prior to initiating the reaction by the addition of substrate. Reactions were terminated after 20 minutes of incubation at 37° C. by the addition of glacial acetic acid to a final concentration of 3.6% (v/v).
Plates were read on a fluorometer with excitation and emission wavelengths set to 320 nm and 405 nm, respectively. Inhibition constants were obtained by nonlinear regression of the data using the equation (GraphPad Software, Inc., San Diego, Calif.): ν=ν0/[1+(I/K′)] where ν is the reaction rate, ν0 is the uninhibited reaction rate, I is the inhibitor concentration and K′ is the apparent inhibition constant.
Compounds of the invention were tested in this assay and found to have pKi values at human NEP as follows.
With `O=C(N[C@H](Cc1ccc(-c2cccc(Cl)c2)cc1)C[C@@H](O)C(=O)O)C(=O)N1CCC(CCO)CC1` [Example 4-24, (2R,4R)-5-(3′-Chlorobiphenyl-4-yl)-2-hydroxy-4-{2-[4-(2-hydroxyethyl)-piperidin-1-yl]-2-oxo-acetylamino}pentanoic acid], the Ki (as a rule, a measure of affinity in units of concentration, obtained from inhibition or displacement) is 1 to 10 nM.
Take `O=C(N[C@H](Cc1ccc(-c2cccc(Cl)c2)cc1)C[C@@H](O)C(=O)O)C(=O)N1CCCC[C@@H]1CO` [Example 4-25, (2R,4R)-5-(3′-Chlorobiphenyl-4-yl)-2-hydroxy-4-[2-((R)-2-hydroxymethyl-piperidin-1-yl)-2-oxo-acetylamino]pentanoic acid]: the Ki is not above 1 nM.
For the compound `O=C(N[C@H](Cc1ccc(-c2cccc(Cl)c2)cc1)C[C@@H](O)C(=O)O)C(=O)N1CCCC[C@H]1CO` [Example 4-26, (2R,4R)-5-(3′-Chlorobiphenyl-4-yl)-2-hydroxy-4-[2-((S)-2-hydroxymethyl-piperidin-1-yl)-2-oxo-acetylamino]pentanoic acid], the Ki was not above 1 nM.
On to `O=C(N[C@H](Cc1ccc(-c2cccc(Cl)c2)cc1)C[C@@H](O)C(=O)O)C(=O)N1CCC(C(=O)O)CC1` [Example 4-27, 1-[(1R,3R)-3-Carboxy-1-(3′-chlorobiphenyl-4-ylmethyl)-3-hydroxypropyl-aminooxalyl]-piperidine-4-carboxylic acid], for which the Ki is 1 to 10 nM.
Regarding `O=C(N[C@H](Cc1ccc(-c2cccc(Cl)c2)cc1)C[C@@H](O)C(=O)O)C(=O)N1CCCC(C(=O)O)C1` (stereo partly drawn) [Example 4-28, 1-[(1R,3R)-3-Carboxy-1-(3′-chlorobiphenyl-4-ylmethyl)-3-hydroxypropyl-aminooxalyl]-piperidine-3-carboxylic acid], the inhibition constant (Ki) is 1 to 10 nM.
For `NC(=O)C1CCN(C(=O)C(=O)N[C@H](Cc2ccc(-c3cccc(Cl)c3)cc2)C[C@@H](O)C(=O)O)CC1` [Example 4-29, (2R,4R)-4-[2-(4-Carbamoyl-piperidin-1-yl)-2-oxo-acetylamino]-5-(3′-chlorobiphenyl-4-yl)-2-hydroxypentanoic acid] the value was 10 to 31.6 nM; for `N#CC1CCCN(C(=O)C(=O)N[C@H](Cc2ccc(-c3cccc(Cl)c3)cc2)C[C@@H](O)C(=O)O)C1` (stereo partly drawn) [Example 4-30, (2R,4R)-5-(3′-Chlorobiphenyl-4-yl)-4-[2-(3-cyanopiperidin-1-yl)-2-oxo-acetylamino]-2-hydroxypentanoic acid], 10 to 31.6 nM; for `O=C(N[C@H](Cc1ccc(-c2cccc(Cl)c2)cc1)C[C@@H](O)C(=O)O)C(=O)N1CCC(F)CC1` [Example 4-31, (2R,4R)-5-(3′-Chlorobiphenyl-4-yl)-4-[2-(4-fluoropiperidin-1-yl)-2-oxo-acetylamino]-2-hydroxypentanoic acid], 10 to 31.6 nM.
In the case of `O=C(N[C@H](Cc1ccc(-c2cccc(Cl)c2)cc1)C[C@@H](O)C(=O)O)C(=O)N1CCCC(CCO)C1` (stereo partly drawn) [Example 4-32, (2R,4R)-5-(3′-Chlorobiphenyl-4-yl)-2-hydroxy-4-{2-[3-(2-hydroxyethyl)-piperidin-1-yl]-2-oxo-acetylamino}pentanoic acid] it was 10 to 31.6 nM; in that of `O=C(N[C@H](Cc1ccc(-c2cccc(Cl)c2)cc1)C[C@@H](O)C(=O)O)C(=O)N1CCC[C@H](CO)C1` [Example 4-33, (2R,4R)-5-(3′-Chlorobiphenyl-4-yl)-2-hydroxy-4-[2-((S)-3-hydroxymethyl-piperidin-1-yl)-2-oxo-acetylamino]pentanoic acid], 1 to 10 nM.
In the case of `CN1CCN(C(=O)C(=O)N[C@H](Cc2ccc(-c3cccc(Cl)c3)cc2)C[C@@H](O)C(=O)O)CC1` [Example 4-34, (2R,4R)-5-(3′-Chlorobiphenyl-4-yl)-2-hydroxy-4-[2-(4-methyl-piperazin-1-yl)-2-oxo-acetylamino]pentanoic acid] it was 10 to 31.6 nM; in that of `CCOC(=O)N1CCN(C(=O)C(=O)N[C@H](Cc2ccc(-c3cccc(Cl)c3)cc2)C[C@@H](O)C(=O)O)CC1` [Example 4-35, 4-[(1R,3R)-3-Carboxy-1-(3′-chlorobiphenyl-4-ylmethyl)-3-hydroxy-propylaminooxalyl]-piperazine-1-carboxylic acid ethyl ester], 10 to 31.6 nM; in that of `O=C(N[C@H](Cc1ccc(-c2cccc(Cl)c2)cc1)C[C@@H](O)C(=O)O)C(=O)N1CCN(C(=O)c2ccco2)CC1` [Example 4-36, (2R,4R)-5-(3′-Chlorobiphenyl-4-yl)-4-{2-[4-(furan-2-carbonyl)-piperazin-1-yl]-2-oxo-acetylamino}-2-hydroxypentanoic acid], 1 to 10 nM.
For the compound `N#Cc1ccccc1N1CCN(C(=O)C(=O)N[C@H](Cc2ccc(-c3cccc(Cl)c3)cc2)C[C@@H](O)C(=O)O)CC1` [Example 4-37, (2R,4R)-5-(3′-Chlorobiphenyl-4-yl)-4-{2-[4-(2-cyano-phenyl)-piperazin-1-yl]-2-oxo-acetylamino}-2-hydroxypentanoic acid], the inhibition constant Ki was 10 to 31.6 nM.
In the case of `CCOCCN1CCN(C(=O)C(=O)N[C@H](Cc2ccc(-c3cccc(Cl)c3)cc2)C[C@@H](O)C(=O)O)CC1` [Example 4-38, (2R,4R)-5-(3′-Chlorobiphenyl-4-yl)-4-{2-[4-(2-ethoxy-ethyl)-piperazin-1-yl]-2-oxo-acetylamino}-2-hydroxypentanoic acid] it was 10 to 31.6 nM; in that of `CS(=O)(=O)N1CCN(C(=O)C(=O)N[C@H](Cc2ccc(-c3cccc(Cl)c3)cc2)C[C@@H](O)C(=O)O)CC1` [Example 4-39, (2R,4R)-5-(3′-Chlorobiphenyl-4-yl)-2-hydroxy-4-[2-(4-methanesulfonyl-piperazin-1-yl)-2-oxo-acetylamino]pentanoic acid], 10 to 31.6 nM.
In the case of `CN(C)C(=O)N1CCN(C(=O)C(=O)N[C@H](Cc2ccc(-c3cccc(Cl)c3)cc2)C[C@@H](O)C(=O)O)CC1` [Example 4-40, (2R,4R)-5-(3′-Chlorobiphenyl-4-yl)-4-[2-(4-dimethylcarbamoyl-piperazin-1-yl)-2-oxo-acetylamino]-2-hydroxypentanoic acid] it was 10 to 31.6 nM.
For `COC(=O)N1CCN(C(=O)C(=O)N[C@H](Cc2ccc(-c3cccc(Cl)c3)cc2)C[C@@H](O)C(=O)O)CC1` [Example 4-41, 4-[(1R,3R)-3-Carboxy-1-(3′-chlorobiphenyl-4-ylmethyl)-3-hydroxy-propylaminooxalyl]-piperazine-1-carboxylic acid methyl ester] the value was 1 to 10 nM; for `C[C@@H]1COC[C@H](C)N1C(=O)C(=O)N[C@H](Cc1ccc(-c2cccc(Cl)c2)cc1)C[C@@H](O)C(=O)O` [Example 4-42, (2R,4R)-5-(3′-Chlorobiphenyl-4-yl)-4-[2-((3R,5S)-3,5-dimethylmorpholin-4-yl)-2-oxo-acetylamino]-2-hydroxypentanoic acid], 10 to 31.6 nM; for `O=C(N[C@H](Cc1ccc(-c2cccc(Cl)c2)cc1)C[C@@H](O)C(=O)O)C(=O)N1CCOC(CO)C1` (stereo partly drawn) [Example 4-43, (2R,4R)-5-(3′-Chlorobiphenyl-4-yl)-2-hydroxy-4-[2-(2-hydroxymethyl-morpholin-4-yl)-2-oxo-acetylamino]pentanoic acid], 1 to 10 nM.
With `O=C(N[C@H](Cc1ccc(-c2cccc(Cl)c2)cc1)C[C@@H](O)C(=O)O)C(=O)N1CCOCC1` [Example 4-44, (2R,4R)-5-(3′-Chlorobiphenyl-4-yl)-2-hydroxy-4-(2-morpholin-4-yl-2-oxo-acetylamino)pentanoic acid], the Ki was 1 to 10 nM.
In the case of `C[C@@H]1CN(C(=O)C(=O)N[C@H](Cc2ccc(-c3cccc(Cl)c3)cc2)C[C@@H](O)C(=O)O)C[C@H](C)O1` [Example 4-45, (2R,4R)-5-(3′-Chlorobiphenyl-4-yl)-4-[2-((2R,6S)-2,6-dimethylmorpholin-4-yl)-2-oxo-acetylamino]-2-hydroxypentanoic acid] it was 1 to 10 nM; in that of `C[C@@H]1CO[C@@H](C)CN1C(=O)C(=O)N[C@H](Cc1ccc(-c2cccc(Cl)c2)cc1)C[C@@H](O)C(=O)O` [Example 4-46, (2R,4R)-5-(3′-Chlorobiphenyl-4-yl)-4-[2-((2S,5R)-2,5-dimethylmorpholin-4-yl)-2-oxo-acetylamino]-2-hydroxypentanoic acid], 1 to 10 nM; in that of `C[C@H]1COC[C@H](C)N1C(=O)C(=O)N[C@H](Cc1ccc(-c2cccc(Cl)c2)cc1)C[C@@H](O)C(=O)O` [Example 4-47, (2R,4R)-5-(3′-Chlorobiphenyl-4-yl)-4-[2-((3S,5S)-3,5-dimethylmorpholin-4-yl)-2-oxo-acetylamino]-2-hydroxypentanoic acid], 1 to 10 nM.
In the case of `O=C(N[C@H](Cc1ccc(-c2cccc(Cl)c2)cc1)C[C@@H](O)C(=O)O)C(=O)N1CCCO1` [Example 4-48, (2R,4R)-5-(3′-Chlorobiphenyl-4-yl)-2-hydroxy-4-(2-isoxazolidin-2-yl-2-oxo-acetylamino)pentanoic acid] it was 1 to 10 nM.
